This passage reports cytotoxicity results from ChEMBL document CHEMBL3507680, “University of Dundee, Gates Library screen for HepG2 cell viability”.

A short description of this data set: Human HepG2 cell viability assay in 384 well format. Type of data set: toxicity, cell-based. Details: dose 125 nL, time 70.5 hour; concentration not given beside the values. The following applies: HepG2 cells, read-out: Inhibition.
For the molecule `Cc1ccc(S(=O)(=O)Nc2c(C)nn(C)c2C)cc1C`, the cytotoxicity at 70.5 h was -5.46%. The figure for `O=C(CNC(=O)c1ccccc1F)NCc1ccccn1` is -7.71%; for `O=C(NS(=O)(=O)c1cccnc1)C1CC(c2ccccc2)=NO1` (stereo not drawn) it is -4.92%; for `CCOC(C)C(=O)Nc1ccnn1-c1ccccc1C` (stereo not drawn) it is 7.99%.

Take `O=C(Nc1cnn(CC(F)F)c1)c1cccc(-n2cnnn2)c1`: the cytotoxicity at 70.5 h is -1.49%.

For the molecule `OCC(CO)Nc1nc(C(F)F)nc2ccccc12`, the cytotoxicity at 70.5 h was -3.24%. In the case of `Cc1[nH]nc2ncc(C(=O)N3CCCC3c3noc(C(C)C)n3)cc12` (stereo not drawn), the cytotoxicity at 70.5 h is -19.5%.

As to `O=C(O)c1ccc(S(=O)(=O)Nc2cnn(CC(F)(F)F)c2)cc1`, the cytotoxicity at 70.5 h was found to be 3.28%. `Cc1ccc(OCCCC(=O)Nc2nonc2C)cc1C`: the cytotoxicity at 70.5 h was 12%.

For `COc1ccc(C2(NC(=O)c3ccc(=O)n(C)n3)CCCC2)cc1`, the cytotoxicity at 70.5 h was -12.4%. As to `CCCn1nc(C(=O)NC2(c3ccc(Cl)cc3)CCCC2)ccc1=O`, the cytotoxicity at 70.5 h is -7.76%.

`N#Cc1cccc(S(=O)(=O)NC(=O)C2CC(c3ccccc3)=NO2)c1` (stereo not drawn): the cytotoxicity at 70.5 h is -18.7%. Regarding `Cc1nc(CNc2ccccc2CCC(F)(F)F)cs1`, the cytotoxicity at 70.5 h was -9.96%. The value for `O=C(c1cc(C2CCCC2)no1)N1CC(O)C1` was -3.97%; that for `O=C(CNC(=O)C1(c2ccc(F)cc2F)CCC1)Nc1ccccn1` was -3.32%; that for `O=C(CNC(=O)C1(c2ccc(F)cc2F)CCC1)Nc1cccnc1` was 31.2%. `CC(C)n1nnnc1-c1ccc(NC(=O)CC(F)(F)F)cc1F`: the cytotoxicity at 70.5 h is -1.35%. Regarding `COCc1ccccc1NCc1csc(NC(C)=O)n1`, the cytotoxicity at 70.5 h was -7.46%. For the molecule `Cc1cc(C)n(CCCNC(=O)C2CCCO2)n1` (stereo not drawn), the cytotoxicity at 70.5 h came to 2.61%. Consider `O=C1CN(Cc2occc2C(=O)NCCc2ccc(F)cc2)CCN1`, for which the cytotoxicity at 70.5 h came to 2.4%. The value for `CC(C)n1nnnc1-c1ccc(NC(=O)N(C)CCN(C)C)cc1F` was -7.88%; that for `Cn1cc(C(O)CNC(=O)c2sccc2OC(F)F)cn1` (stereo not drawn) was -4.33%; that for `Cc1cccc(OCC(=O)NS(=O)(=O)Cc2ccccc2)c1` was -5.52%. As for `O=C(COc1ccccc1)NS(=O)(=O)Cc1ccccc1`, the cytotoxicity at 70.5 h is -1.17%. Regarding `CC(=O)c1cccc(OCCCC(=O)N(C)C2CCN(C)CC2)c1`, the cytotoxicity at 70.5 h was -7.34%.

Turning to `Cc1nc(C)n(CC2CCCN2Cc2ccc(F)cc2C#N)n1` (stereo not drawn), the cytotoxicity at 70.5 h is 5.18%. As to `O=C(Nc1ccc(N2CCCCC2)cn1)C1CCCN1C(=O)C1CC1` (stereo not drawn), the cytotoxicity at 70.5 h is -4.38%. Turning to `CC(C)CN(C(=O)COc1ccc(C(N)=O)cc1)C1CCN(C)CC1`, the cytotoxicity at 70.5 h was -4.39%. The value for `CCC(CC)(CNC(=O)OC(C)(C)C)NC(=O)c1cnccn1` was 0.78%. `Cc1csc(-c2ccc(NC(=O)N3CCOCC3)cc2)n1`: the cytotoxicity at 70.5 h is -0.264%.

Regarding `OCCN1CCN(CC2(O)CCCCC2)CC1`, the cytotoxicity at 70.5 h was determined as 0.0783%. With `Cc1ccccc1C(O)CNC(=O)Cc1ccc(F)cc1` (stereo not drawn), the cytotoxicity at 70.5 h is -2.44%.

With `Cc1cc(OC(F)F)c(C(=O)NCC(O)c2cccc(F)c2)s1` (stereo not drawn), the cytotoxicity at 70.5 h came out at 6.81%.

As for `O=C1CC(C(=O)Nc2nnc(-c3cccs3)[nH]2)c2ccccc2N1` (stereo not drawn), the cytotoxicity at 70.5 h is -2.83%. The figure for `CC(C)(CNC(=O)C1(c2ccccc2)CCOCC1)C(=O)O` is -1.55%; for `Cc1cccc(N2CCC(NC(C)c3cccs3)CC2)n1` (stereo not drawn) it is 10.3%. For the molecule `O=C(O)CCNC(=O)C1(c2cccc(Br)c2)CCOCC1`, the cytotoxicity at 70.5 h was -0.861%. The value for `OCCN1CCN(Cc2cc(Cl)cc3cccnc23)CC1` was 4.47%. With `Cc1noc(CN(Cc2ccco2)Cc2cccc3c2OCO3)n1`, the cytotoxicity at 70.5 h is -1.63%. For the molecule `Cc1noc(CN(Cc2ccc3c(c2)OCCO3)Cc2ccco2)n1`, the cytotoxicity at 70.5 h is -3.69%. Take `Cc1ncc2c(n1)CN(CC1CCCCO1)CC2` (stereo not drawn): the cytotoxicity at 70.5 h turned out to be 5.6%. Consider `Clc1cc(CN2CCCN3CCCC3C2)c2ncccc2c1` (stereo not drawn), for which the cytotoxicity at 70.5 h is -2.91%. Consider `CN1CCOC(CNCc2nc(-c3ccoc3)no2)C1` (stereo not drawn), for which the cytotoxicity at 70.5 h is -6.11%. Turning to `Cc1cc(C2CCCN(C(=O)COc3cccc(F)c3)C2)n[nH]1` (stereo not drawn), the cytotoxicity at 70.5 h was -5.26%.

On to `CCOC(=O)N(C)C1CCN(Cc2csc(C)n2)CC1`, for which the cytotoxicity at 70.5 h came to 2.22%.

In the case of `CCN(C(=O)CN1CCCC1c1c(C)nn(C)c1OC)C1CC1` (stereo not drawn), the cytotoxicity at 70.5 h was -6.09%. Take `CCc1nccn1CC1CCCN1S(=O)(=O)N1CCCOCC1` (stereo not drawn): the cytotoxicity at 70.5 h turned out to be 23.7%. The value for `CCCn1nnnc1COC(=O)C1Cc2cc(Cl)ccc2O1` (stereo not drawn) was -9.18%; that for `Cc1ccccc1C(=O)NCC(=O)NCc1ccccn1` was 15.5%.

Take `COc1cccc(CN(C)Cc2c(C)noc2C)c1OC`: the cytotoxicity at 70.5 h was -3.33%.

With `O=C1CN(C(=O)c2cc3ccc(Br)cc3[nH]2)CCN1`, the cytotoxicity at 70.5 h is -9.95%. As for `COc1cccc(CCC(=O)Nc2ccn(C)n2)c1OC`, the cytotoxicity at 70.5 h was -10%. The value for `CCOc1ccc2cc(C(=O)NCCC(=O)N(C)C)[nH]c2c1` was -7.75%; that for `Cc1cc(CNCC2CNc3ccnn3C2)no1` (stereo not drawn) was 19.3%. The value for `COC1CCN(c2ccc(F)cc2CN(C)C(C)C(N)=O)CC1` (stereo not drawn) was -1.51%; that for `Cc1ccc(-c2noc(Cn3nc(C(N)=O)ccc3=O)n2)cc1` was -8.12%. Consider `CN(Cc1ccc(C#N)cc1)CC1CCS(=O)(=O)C1` (stereo not drawn), for which the cytotoxicity at 70.5 h is -8.96%. Turning to `COc1c(C2CCCN2CC(=O)N(C)c2nccs2)c(C)nn1C` (stereo not drawn), the cytotoxicity at 70.5 h turned out to be 0.589%. On to `COc1cc(C)c(S(=O)(=O)CC(=O)N(C)C(C)C)cc1OC`, for which the cytotoxicity at 70.5 h is -5.84%. As to `O=C(CNC(=O)c1ccccc1I)NCc1ccccc1F`, the cytotoxicity at 70.5 h is -10.2%. The value for `CCn1ccnc1CNCc1ccc(C)cc1OC(C)(C)C` was -11%; that for `Cc1nc(NC(=O)C(C)N(C)Cc2cccc(C#N)c2)sc1C` (stereo not drawn) was 15.8%. The value for `Cc1ccc(CNC(=O)NCc2nccn2C)c(OC(C)(C)C)c1` was -2.56%.

Take `CCCn1nnnc1COC(=O)C1COc2ccccc2O1` (stereo not drawn): the cytotoxicity at 70.5 h was -6.23%. As to `CCSCc1cccc(NCc2cccnc2)c1`, the cytotoxicity at 70.5 h is -14.7%. As for `COc1cccc(CN(C)C(C)C(=O)Nc2nc(C)c(C)s2)c1` (stereo not drawn), the cytotoxicity at 70.5 h is -11.4%. The figure for `Cc1cnn(CC2CCN(CC(O)Cn3cccn3)CC2)c1` (stereo not drawn) is -6.24%; for `CC(=O)N1CCC(NC(=O)c2ccccc2-n2cnnn2)CC1` it is -3.54%. Consider `Cn1ccc(C(=O)N2CCCC2c2ccc3c(c2)OCCO3)cc1=O` (stereo not drawn), for which the cytotoxicity at 70.5 h was -2.74%. As to `O=C(NC1CC1)c1cc(Cl)ccc1-n1cnnn1`, the cytotoxicity at 70.5 h was -6.19%. The value for `COc1cccc(C2CCCN2C(=O)c2ccc(=O)n(C)c2)c1` (stereo not drawn) was -3.72%; that for `COC(=O)CCNC(=O)c1c[nH]cc1-c1ccccc1OC` was -3.42%. For the molecule `CCC(C)NC(=O)CCNC(=O)c1c[nH]cc1-c1cccc(OC)c1` (stereo not drawn), the cytotoxicity at 70.5 h is 2.46%.

With `N#Cc1cc(C#N)c(SCCC(=O)Nc2ccc(F)cc2)nc1N`, the cytotoxicity at 70.5 h is -12.6%. For the molecule `CCCNC(=O)NCc1nc(C)c(C)o1`, the cytotoxicity at 70.5 h worked out at 7.79%. With `CN(C)c1ccc(CNC2(c3ccc(F)cc3)CCOCC2)cc1F`, the cytotoxicity at 70.5 h was -7.63%. With `NC(=O)C1CCN(C(=O)CSC2CCCc3ccccc32)CC1` (stereo not drawn), the cytotoxicity at 70.5 h came to 1.96%. The figure for `Cc1nc(CNC(=O)NCC(F)(F)F)oc1C` is 3.56%. In the case of `COc1c(NS(=O)(=O)c2ccc(C)c(C)c2)c(C)nn1C`, the cytotoxicity at 70.5 h is 2.79%. As to `COCC(=O)N[C@H](C(=O)NC(C)c1cc(C)ccc1C)C(C)C` (stereo partly drawn), the cytotoxicity at 70.5 h was -0.855%. Regarding `CCn1nc2c(cc1=O)CN(c1nc3ccccc3s1)CC2`, the cytotoxicity at 70.5 h is 16.9%. For the molecule `O=C(CN1CCCNC1=O)N(Cc1ccccc1)CC(F)F`, the cytotoxicity at 70.5 h worked out at 1.59%. For `COCC(=O)N[C@H](C(=O)NC(C)c1cccc(C)c1C)C(C)C` (stereo partly drawn), the cytotoxicity at 70.5 h came to 0.118%. As to `Cc1nc(-c2ccc(CC(=O)N3CCNC(=O)C3)cc2)cs1`, the cytotoxicity at 70.5 h was determined as 9.75%. As to `CC(C)c1nc(NC(=O)CCCn2cccc2)n(C)n1`, the cytotoxicity at 70.5 h is 3.43%. The figure for `CC1CN(C(=O)C2(c3ccc(F)cc3F)CCOCC2)CCO1` (stereo not drawn) is -2.6%. For the molecule `CCN(CC)Cc1ccccc1NCc1c(C)noc1C`, the cytotoxicity at 70.5 h was -0.774%. On to `COc1ccc(CNCc2c(C)nc3sc(C)cn23)c(OC)c1OC`, for which the cytotoxicity at 70.5 h is 11.7%.

Take `Cn1cc(C(=O)N2CCCC2c2ccc3c(c2)OCO3)ccc1=O` (stereo not drawn): the cytotoxicity at 70.5 h was -1.44%. As to `Cc1csc(C2(NCCC(=O)N3CCOCC3)CCCC2)n1`, the cytotoxicity at 70.5 h was 4.83%. For the molecule `COc1ccnc(N2CCN(Cc3ncc(C(C)(C)C)o3)CC2)n1`, the cytotoxicity at 70.5 h turned out to be 6.11%.

As to `CC(C)(C)OC(=O)N1CCC(C(=O)NC2CCS(=O)(=O)C2)CC1` (stereo not drawn), the cytotoxicity at 70.5 h was -6.28%. For `CCc1ccc(CNC(=O)Nc2cc(C)on2)s1`, the cytotoxicity at 70.5 h is -9.95%.

Regarding `CCOc1ccc(C(=O)NCc2ccnc(N3CCCC3)c2)cn1`, the cytotoxicity at 70.5 h is -6.13%. Turning to `CCn1cnnc1CNC(=O)N(C)Cc1c(F)cccc1Cl`, the cytotoxicity at 70.5 h is -8.68%. Regarding `CNS(=O)(=O)c1ccc(CNC(=O)Nc2cc(C)on2)s1`, the cytotoxicity at 70.5 h was -6.5%. Regarding `Cc1ccc(C(=O)NCc2ccnc(N3CCN(C)CC3)c2)cn1`, the cytotoxicity at 70.5 h was -10%. For the molecule `CN(C)C(=O)N1CCC(C(=O)NCCNc2ncccc2C#N)CC1`, the cytotoxicity at 70.5 h is -4.63%. The figure for `CC(C)(C)c1cnc(CN2CCN(c3ncccn3)CC2)o1` is 6.21%; for `CCN1CCN(C2CCN(C(C(N)=O)c3ccc(F)cc3)CC2)C1=O` (stereo not drawn) it is 5.11%; for `CCCN(CC1CC1)C(=O)Nc1ccc(N2CCSCC2)cc1C` it is -8.14%.

For the molecule `CCC(C)N(C)C(=O)Nc1ccc(N2CCSCC2)cc1C` (stereo not drawn), the cytotoxicity at 70.5 h is -5.01%. Turning to `COc1cc(Br)c(CNC2CCCNC2=O)cc1OC` (stereo not drawn), the cytotoxicity at 70.5 h was -0.0651%.
